# Data as given in PMC9254247, “Dual-sensitive antibacterial peptide nanoparticles prevent dental caries” (Theranostics, 2022).
# System: clinically isolated S.mutans strains
# Assay: Bactericidal activity against clinically isolated S. mutans strains (CFU counting)
# Assay type: cell-based, Streptococcus mutans
# Conditions: for bacterial viability (survival): 10 min, CFU
# Description: Table S3 The bactericidal activity of pHly -1 NPs and CHX against clinically isolated S.mutans strains a
# “a” represents the bacterial viability after the pHly-1 NPs and CHX treatment for 10 min. The killing activity of pHly -1 NPs and CHX was measured against clinically isolated S.mutans strains by counting the CFU of alive bacteria. […]
# Minimal inhibition concentration (MIC) determination . S.mutans UA159 (ATCC 700610) and 20 clinical S.mutans strains were used. S.mutans UA159 was purchased from Shanghai Biofeng Biotechnology Co., LTD. These bacteria grown in brain heart infusion broth (BHI, Beijing Land Bridge, China) at 37 °C under anaerobic conditions. […]
# Bacterial killing by pHly-1 NPs at various pHs. pHly-1 NPs were diluted in BHI medium of different pHs (pH 4.5, 5.5, 6.8, and 7.0) to obtain specific diluted solutions (final volume of 200 μ L). 1 μ L bacterial suspension (2×10^8 CFU/mL) in the logarithmic phase was added into corresponding diluted solutions and mixed individually. After being incubated for 10 min at 37 °C under anaerobic conditions, aliquots of 20 μL bacterial suspension were plated on BHI agar plates. The bacterial killing activity of pHly -1 NPs was measured by counting the CFU of alive bacteria with agar plating after incubation under anaerobic conditions for 48 h at 37 °C. The results were determined and presented of three repeats. Bacterial survival(%) = CFU of bacteria treated with drugs/CFU of bacteria treated with negative control× 100% 2. […]
# For SEM, S. mutans UA159 was treated by the same way to SYTO 9/PI double staining asay and then harvested, washed, and then fixed in 2.5 % glutaraldehyde for 3 h. After dehydration by serial concentrations of ethanol solutions (10%, 25%, 50%, 75%, 95%, and 100%) and lyophiliz ation overnight, the lyophilized samples were coated with goldand then photographed by SEM.
smiles,measurement,setting,value
"[H]/N=C(\N/C(=N/[H])NCCCCCCNC(=N)NC(=N)Nc1ccc(Cl)cc1)Nc1ccc(Cl)cc1 [CHX, chlorhexidine]",viability,"55 μM, in 4 strains",over 90%
same,bacterial viability (survival),"strain CS-1, pH 4.5, 22 μM",95.2%
same,bacterial viability (survival),"strain CS-1, pH 4.5, 55 μM",54%
same,bacterial viability (survival),"strain CS-1, pH 5.5, 22 μM",91.6%
same,bacterial viability (survival),"strain CS-1, pH 5.5, 55 μM",31.3%
same,bacterial viability (survival),"strain CS-2, pH 4.5, 22 μM",96.4%
same,bacterial viability (survival),"strain CS-2, pH 4.5, 55 μM",69.1%
same,bacterial viability (survival),"strain CS-2, pH 5.5, 22 μM",86.9%
same,bacterial viability (survival),"strain CS-2, pH 5.5, 55 μM",76.6%
same,bacterial viability (survival),"strain CS-4, pH 4.5, 22 μM",100%
same,bacterial viability (survival),"strain CS-4, pH 4.5, 55 μM",66.4%
same,bacterial viability (survival),"strain CS-4, pH 5.5, 22 μM",100%
same,bacterial viability (survival),"strain CS-4, pH 5.5, 55 μM",74.6%
same,bacterial viability (survival),"strain CS-5, pH 4.5, 22 μM",100%
same,bacterial viability (survival),"strain CS-5, pH 4.5, 55 μM",67.7%
same,bacterial viability (survival),"strain CS-5, pH 5.5, 22 μM",89.6%
same,bacterial viability (survival),"strain CS-5, pH 5.5, 55 μM",54.9%
same,bacterial viability (survival),"strain CS-6, pH 4.5, 22 μM",106%
same,bacterial viability (survival),"strain CS-6, pH 4.5, 55 μM",67.0%
same,bacterial viability (survival),"strain CS-6, pH 5.5, 22 μM",95.6%
same,bacterial viability (survival),"strain CS-6, pH 5.5, 55 μM",88.8%
same,bacterial viability (survival),"strain CS-7, pH 4.5, 22 μM",97.0%
same,bacterial viability (survival),"strain CS-7, pH 4.5, 55 μM",54%
same,bacterial viability (survival),"strain CS-7, pH 5.5, 22 μM",91.6%
same,bacterial viability (survival),"strain CS-7, pH 5.5, 55 μM",67.7%
same,bacterial viability (survival),"strain CS-8, pH 4.5, 22 μM",79.5%
same,bacterial viability (survival),"strain CS-8, pH 4.5, 55 μM",49.4%
same,bacterial viability (survival),"strain CS-8, pH 5.5, 22 μM",81.8%
same,bacterial viability (survival),"strain CS-8, pH 5.5, 55 μM",61.8%
same,bacterial viability (survival),"strain CS-9, pH 4.5, 22 μM",83.9%
same,bacterial viability (survival),"strain CS-9, pH 4.5, 55 μM",77%
same,bacterial viability (survival),"strain CS-9, pH 5.5, 22 μM",73.8%
same,bacterial viability (survival),"strain CS-9, pH 5.5, 55 μM",46.9%
same,bacterial viability (survival),"strain CS-10, pH 4.5, 22 μM",83.6%
same,bacterial viability (survival),"strain CS-10, pH 4.5, 55 μM",52.3%
same,bacterial viability (survival),"strain CS-10, pH 5.5, 22 μM",68.9%
same,bacterial viability (survival),"strain CS-10, pH 5.5, 55 μM",68.2%
same,bacterial viability (survival),"strain CS-11, pH 4.5, 22 μM",100%
same,bacterial viability (survival),"strain CS-11, pH 4.5, 55 μM",50.7%
same,bacterial viability (survival),"strain CS-11, pH 5.5, 22 μM",140%
same,bacterial viability (survival),"strain CS-11, pH 5.5, 55 μM",59.4%
same,bacterial viability (survival),"strain CS-12, pH 4.5, 22 μM",98.6%
same,bacterial viability (survival),"strain CS-12, pH 4.5, 55 μM",91.1%
same,bacterial viability (survival),"strain CS-12, pH 5.5, 22 μM",110%
same,bacterial viability (survival),"strain CS-12, pH 5.5, 55 μM",74.2%
same,bacterial viability (survival),"strain CS-13, pH 4.5, 22 μM",93.5%
same,bacterial viability (survival),"strain CS-13, pH 4.5, 55 μM",87.4%
same,bacterial viability (survival),"strain CS-13, pH 5.5, 22 μM",74.0%
same,bacterial viability (survival),"strain CS-13, pH 5.5, 55 μM",65.8%
same,bacterial viability (survival),"strain CS-14, pH 4.5, 22 μM",100%
same,bacterial viability (survival),"strain CS-14, pH 4.5, 55 μM",51.9%
same,bacterial viability (survival),"strain CS-14, pH 5.5, 22 μM",74.2%
same,bacterial viability (survival),"strain CS-14, pH 5.5, 55 μM",71.6%
same,bacterial viability (survival),"strain CS-16, pH 4.5, 22 μM",95.9%
same,bacterial viability (survival),"strain CS-16, pH 4.5, 55 μM",10.9%
same,bacterial viability (survival),"strain CS-16, pH 5.5, 22 μM",87.9%
same,bacterial viability (survival),"strain CS-16, pH 5.5, 55 μM",20%
same,bacterial viability (survival),"strain CS-17, pH 4.5, 22 μM",108.2%
same,bacterial viability (survival),"strain CS-17, pH 4.5, 55 μM",92.3%
same,bacterial viability (survival),"strain CS-17, pH 5.5, 22 μM",102.0%
same,bacterial viability (survival),"strain CS-17, pH 5.5, 55 μM",48.3%
same,bacterial viability (survival),"strain CS-18, pH 4.5, 22 μM",68.2%
same,bacterial viability (survival),"strain CS-18, pH 4.5, 55 μM",71.5%
same,bacterial viability (survival),"strain CS-18, pH 5.5, 22 μM",114.8%
same,bacterial viability (survival),"strain CS-18, pH 5.5, 55 μM",92.2%
same,bacterial viability (survival),"strain CS-19, pH 4.5, 22 μM",93.0%
same,bacterial viability (survival),"strain CS-19, pH 4.5, 55 μM",101%
same,bacterial viability (survival),"strain CS-19, pH 5.5, 22 μM",96.9%
same,bacterial viability (survival),"strain CS-19, pH 5.5, 55 μM",87.9%
same,bacterial viability (survival),"strain CS-20, pH 4.5, 22 μM",91.0%
same,bacterial viability (survival),"strain CS-20, pH 4.5, 55 μM",100%
same,bacterial viability (survival),"strain CS-20, pH 5.5, 22 μM",103.9%
same,bacterial viability (survival),"strain CS-20, pH 5.5, 55 μM",88.9%
